Results published in patent US20230146455A1, “TREATMENT OF INFLAMMATORY DISEASES WITH PEPTIDES AND PHARMACEUTICAL COMPOSITIONS” (Yuyu Pharma, Inc., priority 2020, published 2023).
Where “and” joins values, the source holds several entries; their conditions need not be identical. Equal entries are not always repeated. Where a SMILES comes first, the peptide text is derived from it. [ ]: non-standard residue; d: D form. Hyp = O=C(O)[C@@H]1C[C@@H](O)CN1

System: VEGF-A
Test: Example 9 Luminex, LPS hPBMCs: VEGF-A
Assay type: cell-based, human
Method: Treatment Human PBMCs were pretreated with YY-101, YDE-011 and YDE-043 or reference compound; Xiidra® at various concentration (ranging from 1 nM to 100 uM) for 2 h before stimulation. An equal volume of 0.5% DMSO was used as a vehicle control. Then, the cells were treated with LPS at 5 ug/ml. The supernatants from treated cells were harvested at 24 h and placed in a 96 well for Luminex cytokine & chemokine profiling using a Luminex 200 multiplex assay (Luminex; R&D system, USA).
The main study arm with triplicate wells per group in a 24-well plate: • 1. Blank • 2. PBMC: 0.5% DMSO • 3. PBMC+LPS (5 ug/ml) • 4. PBMC+YY-101 100 uM • 5. PBMC+YY-101 10 uM • 6. PBMC+YY-101 1 uM • 7. PBMC+YY-101 0.1 uM • 8. PBMC+YY-101 0.01 uM • 9. PBMC+LPS (5 ug/ml)+Xiidra®100 uM • 10. PBMC+LPS (5 ug/ml)+Xiidra® 10 uM • 11. PBMC+LPS (5 ug/ml)+Xiidra® 1 uM • 12. PBMC+LPS (5 ug/ml)+Xiidra®0.1 uM • 13. PBMC+LPS (5 ug/ml)+Xiidra®0.01 uM • 14. PBMC+LPS (5 ug/ml)+Xiidra®0.001 uM • 15. PBMC+LPS (5 ug/ml)+YY-101 100 uM • 16. PBMC+LPS (5 ug/ml)+YY-101 10 uM • 17. PBMC+LPS (5 ug/ml)+YY-101 1 uM • 18. PBMC+LPS (5 ug/ml)+YY-101 0.1 uM • 19. PBMC+LPS (5 ug/ml)+YY-101 0.01 uM • 20. PBMC+LPS (5 ug/ml)+YY-101 0.001 uM • 21. PBMC+LPS (5 ug/ml)+YDE-011 100 uM • 22. PBMC+LPS (5 ug/ml)+YDE-011 10 uM • 23. PBMC+LPS (5 ug/ml)+YDE-011 1 uM • 24. PBMC+LPS (5 ug/ml)+YDE-011 0.1 uM • 25. PBMC+LPS (5 ug/ml)+YDE-011 0.01 uM • 26. PBMC+LPS (5 ug/ml)+YDE-011 0.001 uM • 27. PBMC+LPS (5 ug/ml)+YDE-043 100 uM • 28. PBMC+LPS (5 ug/ml)+YDE-043 10 uM • 29. PBMC+LPS (5 ug/ml)+YDE-043 1 uM • 30. PBMC+LPS (5 ug/ml)+YDE-043 0.1 uM • 31. PBMC+LPS (5 ug/ml)+YDE-043 0.01 uM • 32. PBMC+LPS (5 ug/ml)+YDE-043 0.001 uM
Multiplex assay was used to measure 30 cytokines and chemokines. The 1:2, 1:10 and 1:200 diluted cell supernatant and serial dilution of the standard were dispensed into a 96 well plate at 50 ul/well. Then, the pre-mixed cocktail of antibody-coated magnetic beads was dispensed at 50 ul/well and incubated at room temperature for 2 h in a horizontal orbital microplate shaker at 800±500 rpm. The beads were washed using a magnetic device to prevent loss. The biotin-antibody was dispensed in 50 ul of each well and incubated at room temperature for 1 h in a shaker at 800±500 rpm. After washing, streptavidin-PE was added at 50 ul/well and incubated at room temperature for 30 min in a shaker under the same conditions. Finally, after washing, wash buffer (100 ul/well) was added to the plate and incubated in a shaker for 2 min. The Luminex™ 200 setting were set according to the manufacturer's protocol. The data was calculated with a standard five-parameter logistic nonlinear regression analysis of the data (xPonent software 4.2, USA). The levels of cytokine/chemokine are normalized to the live cell counts (1×10^5 cells/mL) and presented as concentrations per mL (pg/mL or ng/mL).

[1] = PBMC + LPS(5 ug/ml) + test article 0.001 uM, Mean
[2] = PBMC + LPS(5 ug/ml) + test article 0.001 uM, single replicates
[3] = PBMC + LPS(5 ug/ml) + test article 0.01 uM, Mean
[4] = PBMC + LPS(5 ug/ml) + test article 0.01 uM, single replicates
[5] = PBMC + LPS(5 ug/ml) + test article 0.1 uM, Mean
[6] = PBMC + LPS(5 ug/ml) + test article 0.1 uM, single replicates
[7] = PBMC + LPS(5 ug/ml) + test article 1 uM, Mean
[8] = PBMC + LPS(5 ug/ml) + test article 1 uM, single replicates
[9] = PBMC + LPS(5 ug/ml) + test article 10 uM, Mean
[10] = PBMC + LPS(5 ug/ml) + test article 10 uM, single replicates
[11] = PBMC + LPS(5 ug/ml) + test article 100 uM, Mean
[12] = PBMC + LPS(5 ug/ml) + test article 100 uM, single replicates
[13] = PBMC + test article 0.01 uM, no LPS, Mean
[14] = PBMC + test article 0.01 uM, no LPS, single replicates
[15] = PBMC + test article 0.1 uM, no LPS, Mean
[16] = PBMC + test article 0.1 uM, no LPS, single replicates
[17] = PBMC + test article 1 uM, no LPS, Mean
[18] = PBMC + test article 1 uM, no LPS, single replicates
[19] = PBMC + test article 10 uM, no LPS, Mean
[20] = PBMC + test article 10 uM, no LPS, single replicates
[21] = PBMC + test article 100 uM, no LPS, Mean
[22] = PBMC + test article 100 uM, no LPS, single replicates

## CC(C)C[C@H](NC(=O)CNC(=O)[C@H](CC(=O)O)NC(=O)[C@H](CCC(N)=O)NC(=O)CNC(=O)[C@@H]1C[C@@H](O)CN1)C(=O)N[C@@H](C)C(=O)NCC(=O)N1CCC[C@H]1C(=O)N[C@@H](CCCCN)C(=O)O [YY-101] (H-[Hyp]GQDGLAGPK-OH; N-terminus and C-terminus assumed)
[1]
  Concentration, Bead name: VEGF-A: 3.0 pg/mL
  MFI, Bead name: VEGF-A: −0.9
  conc/live cell, Bead name: VEGF-A: 0.4 pg/10^5
[2]
  Concentration, Bead name: VEGF-A: 2.2 pg/mL and 6.1 pg/mL and 0.6 pg/mL
  MFI, Bead name: VEGF-A: −1.3 and 0.3 and −1.8
  conc/live cell, Bead name: VEGF-A: 0.4 pg/10^5 and 0.9 pg/10^5 and 0.1 pg/10^5
[3]
  Concentration, Bead name: VEGF-A: 0.6 pg/mL
  MFI, Bead name: VEGF-A: −3.1
  conc/live cell, Bead name: VEGF-A: 0.0 pg/10^5
[4]
  Concentration, Bead name: VEGF-A: 0.6 pg/mL
  MFI, Bead name: VEGF-A: −1.8 and −3.8 (2×)
  conc/live cell, Bead name: VEGF-A: 0.1 pg/10^5 and 0.0 pg/10^5 (2×)
[5]
  Concentration, Bead name: VEGF-A: 2.6 pg/mL
  MFI, Bead name: VEGF-A: −1.1
  conc/live cell, Bead name: VEGF-A: 0.4 pg/10^5
[6]
  Concentration, Bead name: VEGF-A: 3.6 pg/ml (2×) and 0.6 pg/ml
  MFI, Bead name: VEGF-A: −0.8 (2×) and −1.8
  conc/live cell, Bead name: VEGF-A: 0.6 pg/10^5 (2×) and 0.1 pg/10^5
[7]
  Concentration, Bead name: VEGF-A: 2.9 pg/mL
  MFI, Bead name: VEGF-A: −1.4
  conc/live cell, Bead name: VEGF-A: 0.3 pg/10^5
[8]
  Concentration, Bead name: VEGF-A: 2.2 pg/mL and 3.6 pg/mL
  MFI, Bead name: VEGF-A: −2.3 and −1.3 and −0.8
  conc/live cell, Bead name: VEGF-A: 0.0 pg/10^5 and 0.3 pg/10^5 and 0.6 pg/10^5
[9]
  Concentration, Bead name: VEGF-A: 2.7 pg/mL
  MFI, Bead name: VEGF-A: −1.1
  conc/live cell, Bead name: VEGF-A: 0.4 pg/10^5
[10]
  Concentration, Bead name: VEGF-A: 2.2 pg/ml (2×) and 3.6 pg/ml
  MFI, Bead name: VEGF-A: −1.3 (2×) and −0.8
  conc/live cell, Bead name: VEGF-A: 0.4 pg/10^5 and 0.3 pg/10^5 and 0.5 pg/10^5
[11]
  Concentration, Bead name: VEGF-A: 4.3 pg/mL
  MFI, Bead name: VEGF-A: −0.4
  conc/live cell, Bead name: VEGF-A: 0.7 pg/10^5
[12]
  Concentration, Bead name: VEGF-A: 6.1 pg/ml (2×) and 0.6 pg/ml
  MFI, Bead name: VEGF-A: 0.3 (2×) and −1.8
  conc/live cell, Bead name: VEGF-A: 1.0 pg/10^5 (2×) and 0.1 pg/10^5
[13]
  Concentration, Bead name: VEGF-A: 8.4 pg/mL
  MFI, Bead name: VEGF-A: 1.3
  conc/live cell, Bead name: VEGF-A: 1.7 pg/10^5
[14]
  Concentration, Bead name: VEGF-A: 10.7 pg/mL and 6.1 pg/mL
  MFI, Bead name: VEGF-A: 2.3 and 0.3
  conc/live cell, Bead name: VEGF-A: 2.1 pg/10^5 and 1.3 pg/10^5
[15]
  Concentration, Bead name: VEGF-A: 7.3 pg/mL
  MFI, Bead name: VEGF-A: 0.8
  conc/live cell, Bead name: VEGF-A: 1.4 pg/10^5
[16]
  Concentration, Bead name: VEGF-A: 6.1 pg/mL and 8.5 pg/mL
  MFI, Bead name: VEGF-A: 0.3 and 1.3
  conc/live cell, Bead name: VEGF-A: 1.4 pg/10^5 and 1.5 pg/10^5
[17]
  Concentration, Bead name: VEGF-A: 7.3 pg/mL
  MFI, Bead name: VEGF-A: 0.8
  conc/live cell, Bead name: VEGF-A: 1.3 pg/10^5
[18]
  Concentration, Bead name: VEGF-A: 8.5 pg/mL and 6.1 pg/mL
  MFI, Bead name: VEGF-A: 1.3 and 0.3
  conc/live cell, Bead name: VEGF-A: 1.5 pg/10^5 and 1.1 pg/10^5
[19]
  Concentration, Bead name: VEGF-A: 7.9 pg/mL
  MFI, Bead name: VEGF-A: 1.0
  conc/live cell, Bead name: VEGF-A: 1.3 pg/10^5
[20]
  Concentration, Bead name: VEGF-A: 7.3 pg/mL and 8.5 pg/mL
  MFI, Bead name: VEGF-A: 0.8 and 1.3
  conc/live cell, Bead name: VEGF-A: 1.1 pg/10^5 and 1.4 pg/10^5
[21]
  Concentration, Bead name: VEGF-A: 3.6 pg/mL
  MFI, Bead name: VEGF-A: −0.8
  conc/live cell, Bead name: VEGF-A: 0.5 pg/10^5
[22]
  Concentration, Bead name: VEGF-A: 3.6 pg/mL
  MFI, Bead name: VEGF-A: −0.8
  conc/live cell, Bead name: VEGF-A: 0.6 pg/10^5 and 0.5 pg/10^5
